Reference: publication PMC10281575, “PfCRT mutations conferring piperaquine resistance in falciparum malaria shape the kinetics of quinoline drug binding and transport” (PLOS Pathogens, 2023)
Where “and” joins values, the source holds several entries; their conditions need not be identical. Equal entries are not always repeated. Where two headings read alike, the source gives them in different places.

Molecular target: T1, PfCRT^Dd2 (Plasmodium falciparum, UniProt Q8IBZ9, A220S/I356T/K76T/M74I/N326S/N75E/Q271E/R371I)
T1 sequence (Q8IBZ9 1-424 M74I/N75E/K76T/A220S/Q271E/N326S/I356T/R371I): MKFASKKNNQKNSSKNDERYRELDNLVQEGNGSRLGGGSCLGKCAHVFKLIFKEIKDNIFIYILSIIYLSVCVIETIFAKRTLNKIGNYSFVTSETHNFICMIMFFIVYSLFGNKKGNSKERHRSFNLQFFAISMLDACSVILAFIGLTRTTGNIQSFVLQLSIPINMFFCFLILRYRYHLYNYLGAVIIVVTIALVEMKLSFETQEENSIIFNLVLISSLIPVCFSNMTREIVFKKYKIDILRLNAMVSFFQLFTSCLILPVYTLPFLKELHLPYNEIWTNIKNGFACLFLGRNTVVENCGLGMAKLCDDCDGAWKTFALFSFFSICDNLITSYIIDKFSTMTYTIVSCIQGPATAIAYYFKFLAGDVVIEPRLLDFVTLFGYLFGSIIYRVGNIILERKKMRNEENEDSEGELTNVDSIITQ
Assay: Competition kinetics of drug transport (radiolabeled substrate plus cold inhibitor), PfCRT^Dd2-expressing oocytes
Format: cell-based
Set-up: expressed in transfected cells; host or cells: Xenopus laevis oocytes injected with in vitro transcribed RNA (pSP64T)
Details: for PfCRTDd2-mediated PPQ transport 500 µM PPQ: single replicates; for Vmax, maximal velocity of drug transport: global fit; for β, partiality factor: factor on transport of the labeled drug by the other drug
Procedure: The experimental procedure and the data analysis were as described above.
The difference between the two models lies in the value of α, a parameter describing how much the affinity for the substrate changes when the inhibitor is already bound, and vice versa. […] The resulting Vmax,app values and the Vmax,app/KM,app ratios were plotted as a function of the inhibitor concentration (Fig 5A).
Drug transport assays were performed as previously described. Briefly, measurements of radiolabeled drug uptake were made over 1 h, unless otherwise specified. […] Where specified, one or more unlabeled drugs were also present at the indicated concentrations. […] The uptake assays were terminated by removing the oocytes from the reaction medium and washing them three times with 2 mL of ice-cold ND96 buffer. Each oocyte was transferred to a separate scintillation vial and lysed by the addition of 200 μL of a 5% SDS solution. The radioactivity in the sample was measured using a liquid scintillation analyser Tri-Carb 4910 TR (PerkinElmer). Water-injected oocytes were analyzed in parallel as a negative control. The buffer from each condition was measured in duplicate in parallel to each experiment to transform counts per minute into pmol of drug. Drug uptake attributable to PfCRT was determined by subtracting the background uptake from water-injected oocytes from that of PfCRT-expressing oocytes. In all cases, at least three independent experiments were performed on oocytes from different frogs, and for each condition in an experiment, measurements were made from 10 oocytes per treatment.
The following equations were adopted from Segel (1993), and the reader is referred to that text for the assumptions made in the author’s approach in the derivation of each equation [31]. The concentration of substrate is denoted as [S1] and the concentration of the inhibiting substrate is denoted as [S2]. KS1 and KS2 are the dissociation constants for the respective substrate-protein complexes.
Analyses of the kinetic data were performed using SigmaPlot version 13.0 and Python. The drug competition models were globally fit to the kinetic data using the least-squares method and ranked according to their corrected Akaike information criterion difference (ΔAICC) and their Akaike weight, using Python. The two top-ranked models were compared using an F-test.
This factor reflects how much the affinity of the transporter for one drug changes when the other drug is already bound in the protein cavity. In the former model, α > 0 and α ≠ 1. In the latter model, it could be thought of as if α = 1. Because of this, discriminating between the two models also means determining the value of α. In Mixed-type (Partial) inhibition, the apparent maximal velocity (Vmax,app) is given by Eq 22, Vmax,app=Vmax(1+β[S2]/αKS2)/(1+[S2]/αKS2) (Eq 22)
Vmax,app is the maximal rate of substrate transport at a certain inhibitor concentration. The half-maximal inhibitory concentration is given by the term in the denominator different from [S2], which in this case is αKS2. This means that by plotting Vmax,app as a function of [S2], the value of αKS2 can be derived after fitting the curve to Eq 23.
The half-maximal inhibitory concentration derived from this hyperbolic equation is equal to KS2. By plotting Vmax,app/KM,app as a function of [S2], one can derive KS2 after fitting the curve to Eq 25. The value of α can then be calculated dividing αKS2 by KS2.

Clc1ccc2c(N3CCN(CCCN4CCN(c5ccnc6cc(Cl)ccc56)CC4)CC3)ccnc2c1 [PPQ, piperaquine]
PfCRTDd2-mediated PPQ transport 500 µM PPQ (50 µM CQ): 89.07 pmol oocyte-1 h-1 and 87.88 pmol oocyte-1 h-1 and 107.53 pmol oocyte-1 h-1
PfCRTDd2-mediated PPQ transport 500 µM PPQ (125 µM CQ): 90.95 pmol oocyte-1 h-1 and 93.39 pmol oocyte-1 h-1 and 84.66 pmol oocyte-1 h-1
PfCRTDd2-mediated PPQ transport 500 µM PPQ (200 µM CQ): 77.82 pmol oocyte-1 h-1 and 87.40 pmol oocyte-1 h-1 and 96.04 pmol oocyte-1 h-1
PfCRTDd2-mediated PPQ transport 500 µM PPQ (400 µM CQ): 65.21 pmol oocyte-1 h-1 and 77.83 pmol oocyte-1 h-1 and 82.19 pmol oocyte-1 h-1
v / (Vmax - v) (1/[PPQ] 0.002000 µM-1): 0.5629
v / (Vmax - v) (1/[PPQ] 0.002857 µM-1): 0.5805
v / (Vmax - v) (1/[PPQ] 0.005000 µM-1): 0.7051
v / (Vmax - v) (1/[PPQ] 0.008000 µM-1): 0.9675
v / (Vmax - v) (1/[PPQ] 0.020000 µM-1): 1.1790
most plausible inhibition model (16 models, ΔAICC, Akaike weight, F-test, label = cold inhibitor of the other drug's transport): partial noncompetitive inhibition
Vmax, maximal velocity of drug transport (Mixed (Partial) model, drug as radiolabeled substrate): 130 ± 3 pmol oocyte^-1 h^-1
Kd (Mixed (Partial) model, drug as cold inhibitor, read-out: KS, dissociation constant for the PfCRT-substrate complex): 210 ± 50 µM
Kd (Mixed (Partial) model, drug as radiolabeled substrate, read-out: KS, dissociation constant for the PfCRT-substrate complex): 125 ± 9 µM
β, partiality factor (Mixed (Partial) model): 0.63 ± 0.08
α, KS interaction factor (Mixed (Partial) model, label = radiolabeled substrate, other drug cold inhibitor): 1.2 ± 0.3
Vmax, maximal velocity of drug transport (Noncompetitive (Partial) model, drug as radiolabeled substrate, other drug as cold inhibitor): 131 pmol oocyte^-1 h^-1 and 131 ± 2 pmol oocyte^-1 h^-1
Kd (Noncompetitive (Partial) model, drug as cold inhibitor, read-out: KS, dissociation constant for the PfCRT-substrate complex): 201 µM and 200 µM
Kd (Noncompetitive (Partial) model, drug as radiolabeled substrate, read-out: KS, dissociation constant for the PfCRT-substrate complex): 130 ± 6 µM
β, partiality factor (Noncompetitive (Partial) model): 0.60 and 0.60 ± 0.06
KMapp ([3H]PPQ + CQ) ([CQ] 0 µM): 122.92 µM
Vmaxapp ([3H]PPQ + CQ) ([CQ] 0 µM): 130.71 pmol oocyte-1 h-1
Vmaxapp/KMapp ([3H]PPQ + CQ) ([CQ] 0 µM): 1.0634 h⁻¹
KMapp ([3H]PPQ + CQ) ([CQ] 25 µM): 130.31 µM
Vmaxapp ([3H]PPQ + CQ) ([CQ] 25 µM): 125.79 pmol oocyte-1 h-1
Vmaxapp/KMapp ([3H]PPQ + CQ) ([CQ] 25 µM): 0.9653 h⁻¹
KMapp ([3H]PPQ + CQ) ([CQ] 50 µM): 129.68 µM
Vmaxapp ([3H]PPQ + CQ) ([CQ] 50 µM): 119.39 pmol oocyte-1 h-1
Vmaxapp/KMapp ([3H]PPQ + CQ) ([CQ] 50 µM): 0.9206 h⁻¹
KMapp ([3H]PPQ + CQ) ([CQ] 125 µM): 128.38 µM
Vmaxapp ([3H]PPQ + CQ) ([CQ] 125 µM): 113.74 pmol oocyte-1 h-1
Vmaxapp/KMapp ([3H]PPQ + CQ) ([CQ] 125 µM): 0.8860 h⁻¹
KMapp ([3H]PPQ + CQ) ([CQ] 200 µM): 133.02 µM
Vmaxapp ([3H]PPQ + CQ) ([CQ] 200 µM): 109.91 pmol oocyte-1 h-1
Vmaxapp/KMapp ([3H]PPQ + CQ) ([CQ] 200 µM): 0.8262 h⁻¹
KMapp ([3H]PPQ + CQ) ([CQ] 400 µM): 140.80 µM
Vmaxapp ([3H]PPQ + CQ) ([CQ] 400 µM): 99.57 pmol oocyte-1 h-1
Vmaxapp/KMapp ([3H]PPQ + CQ) ([CQ] 400 µM): 0.7072 h⁻¹
Kd (secondary plot, half-maximum inhibitory concentration of Vmax,app versus inhibitor concentration, read-out: αKS, dissociation constant between the drug and the PfCRT complex with the other drug): 205 ± 50 µM
α (αKS divided by KS) (secondary plots, label = prebound drug): 0.9 ± 0.7
